Measured values published in the NIST ThermoML archive (doi:10.1021/je400336p).

Assay: xn = mol fraction of the nth substance listed
Conditions: Fluid (supercritical or subcritical phases), Taylor dispersion method, x1 = 0

Row | binary diffusion coefficient (313 K, 15000 kPa) [m2/s] | binary diffusion coefficient (313 K, 20000 kPa) [m2/s] | binary diffusion coefficient (313 K, 25000 kPa) [m2/s] | binary diffusion coefficient (313 K, 30000 kPa) [m2/s] | binary diffusion coefficient (313 K, 35000 kPa) [m2/s] | binary diffusion coefficient (323 K, 15000 kPa) [m2/s] | binary diffusion coefficient (323 K, 20000 kPa) [m2/s] | binary diffusion coefficient (323 K, 25000 kPa) [m2/s] | binary diffusion coefficient (323 K, 30000 kPa) [m2/s] | binary diffusion coefficient (323 K, 35000 kPa) [m2/s] | binary diffusion coefficient (333 K, 15000 kPa) [m2/s] | binary diffusion coefficient (333 K, 20000 kPa) [m2/s] | binary diffusion coefficient (333 K, 25000 kPa) [m2/s] | binary diffusion coefficient (333 K, 30000 kPa) [m2/s] | binary diffusion coefficient (333 K, 35000 kPa) [m2/s] | Compound
1 | 1.01e-08 | 9.15e-09 | 8.18e-09 | 7.54e-09 | 7.24e-09 | 1.2e-08 | 1.02e-08 | 9.3e-09 | 8.54e-09 | 8.07e-09 | 1.32e-08 | 1.19e-08 | 1.04e-08 | 9.49e-09 | 8.98e-09 | CCC(C)c1ccccc1 (stereo not given) [(1-methylpropyl)benzene] + O=C=O
2 | 1.02e-08 | 9.12e-09 | 8.35e-09 | 7.6e-09 | 7.28e-09 | 1.24e-08 | 1.03e-08 | 9.43e-09 | 8.64e-09 | 8.07e-09 | 1.4e-08 | 1.24e-08 | 1.07e-08 | 9.88e-09 | 9.37e-09 | CC(C)Cc1ccccc1 [(2-methylpropyl)benzene] + O=C=O
3 | 9.63e-09 | 8.71e-09 | 7.72e-09 | 7.24e-09 | 6.79e-09 | 1.11e-08 | 9.92e-09 | 8.94e-09 | 8.4e-09 | 7.57e-09 | 1.32e-08 | 1.16e-08 | 1.02e-08 | 9.21e-09 | 8.62e-09 | CC(C)CCc1ccccc1 [(3-methylbutyl)benzene] + O=C=O
